Laboratory results: patent US9226505B2, “4-substituted 1-phenylpyrazole-3-carboxylic acid derivatives as agents against abiotic plant stress” (BAYER INTELLECTUAL PROPERTY GMBH, priority 2011, dated 2016)

Test system: BRSNS
Test: Drought stress test on crop plants, spray application, visual damage rating (BRSNS)
Assay type: in vivo, Brassica napus
Conditions: dosage 250 g/ha, mean of three results
Protocol: Seeds of monocotyledonous and dicotyledonous crop plants were laid out in sandy loam in wood-fiber pots, covered with soil and cultivated in a greenhouse under good growth conditions. The test plants were treated at the early leaf stage (BBCH10-BBCH13). To ensure uniform water supply before commencement of stress, the potted plants were supplied with the maximum amount of water immediately beforehand by dam irrigation and, after application, transferred into plastic inserts in order to prevent subsequent, excessively rapid drying. The compounds according to the invention, formulated in the form of wettable powders (WP), wettable granules (WG), suspension concentrates (SC) or emulsion concentrates (EC), were sprayed onto the green parts of the plants as an aqueous suspension at an equivalent water application rate of 600 I/ha with addition of 0.2% wetting agent (agrotin). Substance application is followed immediately by stress treatment of the plants (cold or drought stress). […]
After the recovery phase had ended, the intensities of damage were rated visually in comparison to untreated, unstressed controls of the same age (in the case of drought stress) or the same growth stage (in the case of cold stress). The intensity of damage was first recorded as a percentage (100%=plants have died, 0%=like control plants). […]

Which “EF (BRSNS), efficacy = percentage reduction in the intensity of damage” value does the source give for `CCCn1cc(-c2cn(-c3ccc(F)cc3)nc2C(=O)OCC)cn1` [1-878, Ethyl 1-(4-fluorophenyl)-1-propyl-1H, 1′H-4,4′-bipyrazole-3-carboxylate] here?
The value was greater than 5%.
